# ChEMBL document CHEMBL1177817, “Betulin and ursolic acid synthetic derivatives as inhibitors of Papilloma virus” (Bioorg Med Chem Lett, 2010)
# Activity calls are given as the source filed them. The calls are words filed in the database; no cut-off is given here.
# Test system: Hepatitis B virus
# Assay: Antiviral activity against HBV assessed as inhibition of viral DNA replication at 10 uM
# Format: functional, organism-based
# Conditions: not given
row,SMILES,Activity
1,C#C[C@@H]1CC[C@]2(CO)CC[C@]3(C)[C@H](CC[C@@H]4[C@@]5(C)CC[C@H](O)C(C)(C)[C@@H]5CC[C@]43C)[C@@H]12,inactive

# Test system: Influenza A virus
# Assay: Antiviral activity against influenza A virus H1N1 assessed as inhibition of viral replication
# Format: functional, organism-based
# Conditions: not given
row,SMILES,Activity
1,C=C(C)[C@@H]1CC[C@]2(COC(=O)/C=C/c3ccc(OC)cc3)CC[C@]3(C)[C@H](CC[C@@H]4[C@@]5(C)CC[C@H](O)C(C)(C)[C@@H]5CC[C@]43C)[C@@H]12,Active

# Test system: Influenza A virus
# Assay: Antiviral activity against influenza A virus H3N2 assessed as inhibition of viral replication
# Format: functional, organism-based
# Conditions: not given
row,SMILES,Activity
1,C#C[C@@H]1CC[C@]2(CO)CC[C@]3(C)[C@H](CC[C@@H]4[C@@]5(C)CC[C@H](O)C(C)(C)[C@@H]5CC[C@]43C)[C@@H]12,inactive
2,C=C(C)[C@@H]1CC[C@]2(COCCCNCCC#N)CC[C@]3(C)[C@H](CC[C@@H]4[C@@]5(C)CC[C@H](OC(=O)c6cccnc6)C(C)(C)[C@@H]5CC[C@]43C)[C@@H]12,inactive
3,C=C(C)[C@@H]1CC[C@]2(C(=O)O)CC[C@]3(C)[C@H](CC[C@@H]4[C@@]5(C)CC[C@H](OC(=O)c6cccnc6)C(C)(C)[C@@H]5CC[C@]43C)[C@@H]12,inactive
4,C[C@H]1[C@H](C)CC[C@]2(C(=O)O)CC[C@]3(C)C(=CC[C@@H]4[C@@]5(C)CC/C(=N\OCCC#N)C(C)(C)[C@@H]5CC[C@]43C)[C@H]12,inactive
5,C=C(C)[C@@H]1CC[C@]2(COC(=O)c3cccnc3)CC[C@]3(C)[C@H](CC[C@@H]4[C@@]5(C)CC[C@H](OC(=O)c6cccnc6)C(C)(C)[C@@H]5CC[C@]43C)[C@@H]12,inactive

# Test system: Influenza A virus
# Assay: Antiviral activity against influenza A virus H5N1 assessed as inhibition of viral replication
# Format: functional, organism-based
# Conditions: not given
row,SMILES,Activity
1,C#C[C@@H]1CC[C@]2(CO)CC[C@]3(C)[C@H](CC[C@@H]4[C@@]5(C)CC[C@H](O)C(C)(C)[C@@H]5CC[C@]43C)[C@@H]12,inactive
2,C=C(C)[C@@H]1CC[C@]2(COCCCNCCC#N)CC[C@]3(C)[C@H](CC[C@@H]4[C@@]5(C)CC[C@H](OC(=O)c6cccnc6)C(C)(C)[C@@H]5CC[C@]43C)[C@@H]12,inactive
3,C=C(C)[C@@H]1CC[C@]2(C(=O)O)CC[C@]3(C)[C@H](CC[C@@H]4[C@@]5(C)CC[C@H](OC(=O)c6cccnc6)C(C)(C)[C@@H]5CC[C@]43C)[C@@H]12,inactive
4,C[C@H]1[C@H](C)CC[C@]2(C(=O)O)CC[C@]3(C)C(=CC[C@@H]4[C@@]5(C)CC/C(=N\OCCC#N)C(C)(C)[C@@H]5CC[C@]43C)[C@H]12,inactive
5,C=C(C)[C@@H]1CC[C@]2(COC(=O)c3cccnc3)CC[C@]3(C)[C@H](CC[C@@H]4[C@@]5(C)CC[C@H](OC(=O)c6cccnc6)C(C)(C)[C@@H]5CC[C@]43C)[C@@H]12,inactive

# Test system: Influenza B virus
# Assay: Antiviral activity against influenza B virus assessed as inhibition of viral replication
# Format: functional, organism-based
# Conditions: not given
row,SMILES,Activity
1,C#C[C@@H]1CC[C@]2(CO)CC[C@]3(C)[C@H](CC[C@@H]4[C@@]5(C)CC[C@H](O)C(C)(C)[C@@H]5CC[C@]43C)[C@@H]12,inactive
2,C=C(C)[C@@H]1CC[C@]2(COCCCNCCC#N)CC[C@]3(C)[C@H](CC[C@@H]4[C@@]5(C)CC[C@H](OC(=O)c6cccnc6)C(C)(C)[C@@H]5CC[C@]43C)[C@@H]12,inactive
3,C=C(C)[C@@H]1CC[C@]2(C(=O)O)CC[C@]3(C)[C@H](CC[C@@H]4[C@@]5(C)CC[C@H](OC(=O)c6cccnc6)C(C)(C)[C@@H]5CC[C@]43C)[C@@H]12,inactive
4,C[C@H]1[C@H](C)CC[C@]2(C(=O)O)CC[C@]3(C)C(=CC[C@@H]4[C@@]5(C)CC/C(=N\OCCC#N)C(C)(C)[C@@H]5CC[C@]43C)[C@H]12,inactive
5,C=C(C)[C@@H]1CC[C@]2(COC(=O)c3cccnc3)CC[C@]3(C)[C@H](CC[C@@H]4[C@@]5(C)CC[C@H](OC(=O)c6cccnc6)C(C)(C)[C@@H]5CC[C@]43C)[C@@H]12,inactive

# Test system: Human alphaherpesvirus 1
# Assay: Antiviral activity against HSV1 assessed as inhibition of viral replication
# Format: functional, organism-based
# Conditions: not given
row,SMILES,Activity
1,C#C[C@@H]1CC[C@]2(CO)CC[C@]3(C)[C@H](CC[C@@H]4[C@@]5(C)CC[C@H](O)C(C)(C)[C@@H]5CC[C@]43C)[C@@H]12,inactive
2,C=C(C)[C@@H]1CC[C@]2(COCCCNCCC#N)CC[C@]3(C)[C@H](CC[C@@H]4[C@@]5(C)CC[C@H](OC(=O)c6cccnc6)C(C)(C)[C@@H]5CC[C@]43C)[C@@H]12,inactive
3,C=C(C)[C@@H]1CC[C@]2(C(=O)O)CC[C@]3(C)[C@H](CC[C@@H]4[C@@]5(C)CC[C@H](OC(=O)c6cccnc6)C(C)(C)[C@@H]5CC[C@]43C)[C@@H]12,inactive
4,C[C@H]1[C@H](C)CC[C@]2(C(=O)O)CC[C@]3(C)C(=CC[C@@H]4[C@@]5(C)CC/C(=N\OCCC#N)C(C)(C)[C@@H]5CC[C@]43C)[C@H]12,inactive
5,C=C(C)[C@@H]1CC[C@]2(COC(=O)c3cccnc3)CC[C@]3(C)[C@H](CC[C@@H]4[C@@]5(C)CC[C@H](OC(=O)c6cccnc6)C(C)(C)[C@@H]5CC[C@]43C)[C@@H]12,inactive

# Test system: Human alphaherpesvirus 2
# Assay: Antiviral activity against HSV2 assessed as inhibition of viral replication
# Format: functional, organism-based
# Conditions: not given
row,SMILES,Activity
1,C#C[C@@H]1CC[C@]2(CO)CC[C@]3(C)[C@H](CC[C@@H]4[C@@]5(C)CC[C@H](O)C(C)(C)[C@@H]5CC[C@]43C)[C@@H]12,inactive
2,C=C(C)[C@@H]1CC[C@]2(COCCCNCCC#N)CC[C@]3(C)[C@H](CC[C@@H]4[C@@]5(C)CC[C@H](OC(=O)c6cccnc6)C(C)(C)[C@@H]5CC[C@]43C)[C@@H]12,inactive
3,C=C(C)[C@@H]1CC[C@]2(C(=O)O)CC[C@]3(C)[C@H](CC[C@@H]4[C@@]5(C)CC[C@H](OC(=O)c6cccnc6)C(C)(C)[C@@H]5CC[C@]43C)[C@@H]12,inactive
4,C[C@H]1[C@H](C)CC[C@]2(C(=O)O)CC[C@]3(C)C(=CC[C@@H]4[C@@]5(C)CC/C(=N\OCCC#N)C(C)(C)[C@@H]5CC[C@]43C)[C@H]12,inactive
5,C=C(C)[C@@H]1CC[C@]2(COC(=O)c3cccnc3)CC[C@]3(C)[C@H](CC[C@@H]4[C@@]5(C)CC[C@H](OC(=O)c6cccnc6)C(C)(C)[C@@H]5CC[C@]43C)[C@@H]12,inactive

# Test system: Hepatitis C virus
# Assay: Antiviral activity against HCV assessed as inhibition of viral replication
# Format: functional, organism-based
# Conditions: Hepacivirus hominis
row,SMILES,Activity
1,C#C[C@@H]1CC[C@]2(CO)CC[C@]3(C)[C@H](CC[C@@H]4[C@@]5(C)CC[C@H](O)C(C)(C)[C@@H]5CC[C@]43C)[C@@H]12,Active
